≈ marks a conversion by molar mass, not a printed value.
How the values were obtained:
[1] = set-up: method as in PMID 23879262; conditions: 20 mM of PBS (pH = 7.4) containing 150 mM of KCl; cited from earlier work
normal rat L6 myoblast = experiment: Cell survival index (MTT + cell count) bioscreen, L6; format: cell-based; conditions: healthy rat myoblast cell line, 48 h of incubation, mean ± SEM (n = 30), read-out: L6 IC50
Description: (§1) Cell growth inhibition activity of compounds 1, 9a–i, 10a,b, and the positive control nutlin-3a was evaluated following 48 h of incubation with increasing concentrations of the compounds (from 1.5 to 25 µM) in human cancer (A375 and HCT-116) and healthy (L6) cell lines. […] The evaluation of the “cell survival index” show a typical concentration-dependent sigmoid trend, achieving IC50 values in the low micromolar range (Figure S2).
(§2) Human epithelial melanoma A375 cells, human colorectal carcinoma HCT-116 cells, and normal rat L6 myoblast were grown in DMEM (Invitrogen, Paisley, UK) supplemented with 10% fetal bovine serum (FBS, Cambrex, Verviers, Belgium), L-glutamine (2 mM, Sigma, Milan, Italy), penicillin (100 units/mL, Sigma), and streptomycin (100 μg/mL, Sigma) and cultured in a humidified 5% carbon dioxide atmosphere at 37 °C, according to ATCC recommendations. A375 and HCT-116 were used as preclinical human cancer models in vitro, while rat L6 were used as control healthy cells.
(§3) The antiproliferative activity of 1, 9a–i, and 10a,b was investigated through the estimation of a “cell survival index”, arising from the combination of cell viability evaluation with cell counting, as previously reported. The cell survival index is calculated as the arithmetic mean between the percentage values derived from the MTT assay and the automated cell count. Cells were inoculated in 96-microwell culture plates at a density of 10^4 cells/well and allowed to grow for 24 h. The medium was then replaced with fresh medium and cells were treated for an additional 48 h with a range of concentrations (from 1.5 to 25 μM) of 1, 9a–i, and 10a,b. Using the same experimental procedure, cell cultures were also incubated with DMSO as negative controls (vehicle), as well as with cisplatin (cDDP) and nutlin-3a as positive controls for cytotoxic and antiproliferative effects, respectively. Cell viability was evaluated using the MTT assay procedure. Cell number was determined by TC20 automated cell counter (Bio-Rad, Milan, Italy), providing an accurate and reproducible total count of cells and a live/dead ratio in one step by a specific dye (trypan blue) exclusion assay. The calculation of the concentration required to inhibit the net increase in the cell number and viability by 50% (IC50) is based on plots of data (n = 6 for each experiment) and repeated five times (total n = 30). IC50 values were calculated from a dose–response curve by nonlinear regression using a curve-fitting program, GraphPad Prism 5.0, and are expressed as mean values ± SEM (n = 30) of five independent experiments.

[2] = test system: human epithelial melanoma A375 cells; experiment: Cell survival index (MTT + cell count) bioscreen, A375; format: cell-based
Description: as §1, §2, §3

[3] = test system: human colorectal carcinoma HCT-116 cells; experiment: Cell survival index (MTT + cell count) bioscreen, HCT-116; format: cell-based; conditions: HCT-116, 48 h, human colon cancer cell line, 48 h of incubation, mean ± SEM (n = 30)
Description: as §1, §2, §3

[4] = Solubility assay in PBS by UV light scattering (precipitation point); format: physicochemical; conditions: PBS (phosphate-buffered saline), aqueous buffer, kinetic from dmso stock; PBS solution pH = 7.4, 37 °C, mean ± SEM (n = 3)
Description: The solubility of all compounds was evaluated in a PBS solution (phosphate-buffered saline; Sigma-Aldrich, Merck KGaA, Darmstadt, Germany, pH = 7.4) by means of UV spectroscopy.
For each compound, the precipitation point was quantified measuring the increasing of the UV absorption of PBS in the range of 600–800 nm after successive additions of aliquots of a DMSO solution at specific concentration. Because of the absence of bands in the selected UV region, the increase in absorption is due to light scattering caused by the formation of particulate in the PBS. UV absorption data were graphically reported vs. μL of the added DMSO solution (x-axis), and the precipitation point was identified as the intersect point of the bilinear fitted curve. The x coordinate of the intersect point corresponded to the microlitres of DMSO added to PBS (1.4 mL) when the precipitation occurred, from which the concentration of the molecule in PBS at the precipitation point is readily calculated.
The solubility of each molecule in PBS was quantified measuring the UV scattering in the range of 600–800 nm (JASCO UV-530 spectrophotometer, equipped with ETC-505 T temperature controller). DMSO solutions of 1, 9a, 9b, 9c, 9d, 9e, 9f, ±10b, and nutlin-3a were used at a final concentration of 2.6 mM, whereas those of 9g, 9h, and 9i were used at 1.0 mM. A total of 1400 µL of degassed PBS was placed in a quartz cuvette (o.l. 0.5 cm), equilibrated 5 min at 37 °C, and then titrated by 7–10 successive additions of 0.5 µL or 0.3 µL from the DMSO solution. Each titration was performed without removing the cuvette from the UV cell and, after each addition, the solution was equilibrated 1 min a 37 °C under gently stirring before the acquisition of the UV data. For each molecule, the solubility was expressed as the mean ± SEM (n = 3).

## Cc1ccc(Cn2c(C(=O)NCc3cccc(Cl)c3)cc(C(=O)c3ccccc3)c2C)cc1 [compound 1, 4-benzoyl-N-[(3-chlorophenyl)methyl]-5-methyl-1-[(4-methylphenyl)methyl]-1H-pyrrole-2-carboxamide]
[1]
  Solubility: ≤ 6.8 µM
Normal rat L6 myoblast
  CC50: 42 ± 3 µM
[2]; A-375, human melanoma cell line, 48 h of incubation, cell survival index, mean ± SEM (n = 30)
  IC50: 20 ± 4 µM
[2]; SI = IC50 L6/IC50 A375
  SI (selectivity index): 2.1
[3]
  IC50: 41.4 ± 6 µM
[4]
  solubility at 1 min: 3.5 ± 0.1 µM (≈ 1.6 µg/mL)

— publication PMC10223356, “Tetrasubstituted Pyrrole Derivative Mimetics of Protein–Protein Interaction Hot-Spot Residues: A Promising Class of Anticancer Agents Targeting Melanoma Cells” (Molecules, 2023)
